The source of these data is US20230218573A1, “INDOLE COMPOUNDS FOR THE TREATMENT OF NEURODEGENERATIVE DISEASES” (GALYAN BIO, INC., priority 2020, published 2023).

Series [1] relates to zebrafish larvae. As to the kind of experiment: Zebrafish MPP+ motility model, photomotor assay. It counts as in vivo. The conditions noted are these: MPP+ alone, 500 µM. As for the experimental part:
MPP+ selectively targets dopaminergic neurons; the putative mechanism is induction of K+ efflux, cell membrane hyperpolarization and inhibition of neuronal firing. This ultimately leads to an inhibition of complex I, a decrease in ATP production and promotion of the generation of reactive oxygen species upon accumulation in the mitochondria (3). The observed phenotype following exposure to 500 µM from 24 hours post fertilization (hpf) to 120 hpf is characterized by a decrease in movement during lights-on phases of a photomotor assay. In unpublished data below, representative locomotor perturbations of the distance moved and movement frequency is shown.
Six groups were included in each experiment. Immediately after spawning, 40 embryos per group were allocated to a 24-well plate and system water (solvent) was added to all wells. For assessment of neuroprotective potential, Compound 4 was added for a final concentration of 1, 10 and 20 µM (column 4-6). From the following day at 24 hpf, Compound 4 was co-incubated with 500 µM MPP+. MPP+ was prepared immediately prior to incubation and solutions were changed daily. At 120 hpf, drug treatment and MPP+ exposure was ceased and a 3X wash was performed with system water. Larvae were then relocated to 96-well plates for behavioral recording and placed in a separate recording room for 24-hour acclimation. Prior to behavioral recording, wells were fully replenished system water.
Naive group was exposed to solvent only. Vehicle group was exposed to solvent and vehicle corresponding to the vehicle of 20 µM drug solution (0.02% DMSO). MPP+ positive control was exposed to solvent and 500 µM MPP+. All compound groups were treated with the respective vehicle and respective concentration of compound 4.
Behavioral data was recorded from 1 p.m. on 6 dpf until shortly after wakening on 7 dpf. The recording consisted of a photomotor assay in which lights switch off and on in 30-minute intervals between 1 p.m. and 6 p.m., producing a consistent photomotor response. […] Upon lights being turned on again, the larvae cease movement followed by a return to baseline. This cycle is repeated five times. Following the last lights-off phase, constant illumination is presented until lights turn off at 10 p.m. for the night. Lights turn on again at 8 a.m. the following day.
Average movement frequency was measured during 30-minute lights-on phases of photomotor assay. Movement bouts were defined as initiated when velocity exceeded a threshold of 2 mm/s and ceased when velocity fell below 1 mm/s.
Distance moved (mm) was defined as the average distance moved during 30-minute lights-on phases of photomotor assay.
Data was obtained using EthoVision XT (Version 11.5.2016, Noldus) and exported to Microsoft Excel for data analysis. […]

The test system of series [2] is Exon1 Q46. As to the kind of experiment: Circular dichroism of Exon1 Q46, predominantly α-helical state. It counts as biochemical. The conditions noted are these: Exon1 Q46; conc. compound 1.62 µM. On the procedure: Protein samples were diluted with buffer to 7.5 µM prior to Circular Dichroism (CD) measurements. Measurements were conducted at room temperature.
Four spectra at each measurement were taken every 1 nm from 200 to 260 nm, scanning at 50 nm/min with an averaging time of 1 sec. Spectra were obtained from samples in 20 mM phosphate, pH 7.4. Ten scans were averaged for each sample spectrum
Single-wavelength readings at 222 nm were obtained. After subtraction of the Trx contribution, the α-helical content of Httex1 was estimated from its mean residue ellipticity (MREHttex1) at 222 nm. This calculation was conducted as described by Bravo-Arredondo (Bravo-Arredondo, J.M. et al., J Biol Chem. 2018 Dec 21;293(51):19613-19623).
MRE Exon-1 […] and Q46 (Mean Residue Ellipticity) was measured every 1 sec for 300 sec; the 301 readings for each sample were averaged and MRE Trx subtracted. The number of amino acids in each sample to experience a change in helicity was estimated using a previously developed helix-coil transition model, which gave the change in fraction of helicity (ΔfHelix) by the following equation: […]
where MRE Exon1 Q26 or Q46 (MREHttex1 in the formula) describes the helix-coil transition, obtained from the difference between MRE Eon1 Q26 or Q46 at 222 nm of the fusion protein at the given temperature (in our case 37° C.) and the product of MRE Trx at 222 nm at the same temperature and the fraction of residues comprised by Trx in that particular construct, and
In order to calculate an equilibrium of the two states model, percent α-helicity was calculated using the relation of MREHttex1 = 0 and -34700 (deg cm^2 dmol^-1) for 0% and 100% helicity, respectively.
The CD measurements protocol for Compound 101 was the same as outlined above except that from 206 nm - 210 nm and 220 nm - 224 nm, the step size was 0.2 nm, and the bandwidth was 1 nm.
(In general: CD spectra are sensitive to the conformation of chiral molecules.)

For series [3], the system named is STHdh 111/111 striatal cells. As to the kind of experiment: Cell viability (CellTiter Glo) of heat shocked STHdh 111/111 striatal cells. It counts as cell-based, mouse. To be noted: Mus musculus, STHdh 111/111; 10 µM; 48 hours treatment; read-out: Cell Viability striatal cells 3h heat shocked.
Procedure: Cell culture - ST HDH Q111/111 (CH00095, Coriell Institute) striatal derived cell line were grown at 33° C. in DMEM (Sigma-Aldrich), supplemented with 10% fetal bovine serum (FBS), 1% Penicillin-Streptomycin (ThermoFisher Scientific), and 0.4 mg/ml G418 (Geneticin; Invitrogen). ST HDH Q111/111 are mouse striatal cells with polyQ length of 1111.
(§1) Pre-Treatment of striatal cell line - First the medium was removed and new DMEM (DMEM, high glucose, HEPES, no phenol red) medium, supplemented with 10% fetal bovine serum (FBS), 1% Penicillin-Streptomycin, containing 10 µM compound was added. The cells were incubated at 33° C. for 24 hours.
(§2) Heat shock - Cells were heat shocked for 3 hours at 41° C.
(§3) Treatment - Medium was removed and new DMEM (DMEM, high glucose, HEPES, no phenol red) medium, supplemented with 1% fetal bovine serum (FBS), 1% Penicillin-Streptomycin, containing 10 µM compound was added. The cells were incubated at 33° C. for 48 hours.
Cell Viability - Cell viability was measured according to manufacturer recommendations with CellTiter Glo (Promega). 96-well plates for used either for cell viability determination or cell staining.
Series [4] deals with Mur46. The conditions noted are these: 0.1 mM compound concentration.
Procedure: MurTRX, Mur 16 and Mur46 Protein Purification - Proteins were loaded onto IMAC resin (ThermoFisher Scientific HisPur) and eluted in 200 mM imidazole, purified by gel filtration FPLC (HiLoad superdex-200, 26/60; GE Life sciences) and concentrated using 3 kDa cut off Vivaspin 20 PES centrifugal concentrators (Sartorius AG). Proteins were biotinylated using a 1:0.5 molar ratio of EZ-link™ Sulfo-NHS-LC-LC-Biotin (ThermoFisher Scientific) and thoroughly dialysed against PBS prior to Biacore coupling.
A customized biotin capture chip using NeutrAvidin as the capture ligand was created for this assay. To obtain high enough ligand density on the sensor chip surface, NeutrAvidin (Thermoscientific Pierce, Waltham, MA USA) was immobilised on all four sensor chip surfaces to a level of approximately 20,000 RU.
Capture of the Mur ligands to NeutrAvidin - Biotinylated proteins were diluted in HBS EP+ running buffer and captured on the sensor chip surface. Mur46 was coupled to the sensor chip first. After saturating FC3 with Mur46, target response levels for Mur16 and MurTRX were calculated based on their respective molecular weights. […]
Analog Screening-Methods - Analog or derivative compounds from the secondary screen were determined and were used in an analog Biacore SPR screen. […]
Series [5] is described as follows: Modified PAMPA with brain lipids, blood brain barrier permeation by LC-MS-MS. It counts as in vitro ADME. On the procedure:
Compounds from the Biacore screening were analyzed in a modified Parallel Artificial Permeation Assay (PAMPA) assay for their ability to permeate the blood brain barrier. The filter material of a 96-well microplate is impregnated with brain lipids (Di, L. et al., Eur. J. Med. Chem. 2003 Mar;38(3):223-232). The test compounds were added to the donor compartment. […] Based on these permeation data, the drugs were classified as blood brain barrier permeating (BBB+) with a flux rate >50% or non-permeating (BBB-) with a flux rate <50%.
In general terms: The PAMPA barrier holds no transporters, so it reflects passive diffusion.

Series [6] relates to Htt14A2.6 PC12 cells (mHttex1-GFP). In words: mHTT aggregation by filter retardation assay in Htt14A2.6 PC12 cells. To be noted: 24 hour treatment, different concentrations. It counts as cell-based. On the procedure:
Compounds from the Biacore screening were selected for measurement of aggregation in a cell model Htt14A2.6 PC12. Htt14A2.6 PC12 cells express a GFP- tagged 97Q mHtt exon 1 fusion protein (mHttex1-GFP) in the presence of ponasterone A. Htt14A2.6 PC12 cells were grown in medium containing 5 µM ponasterone A for 20 hours prior to treatment with the compounds. Htt14A2.6 PC12 cells were plated at 50~60% confluency. Compound 22 was tested at a final concentration of 80 nM, 400 nM and 10 µM in cell culture medium for 24 hours. Htt14A2.6 PC12 cells were harvested, rinsed, homogenized in cold phosphate-buffered saline containing protease inhibitor cocktail, and centrifuged at 16000 g for 30 min at 4° C. twice. About 25 µg total protein of each sample was resolved in 8% SDS PAGE, transferred onto PVDF membrane, blotted with an anti-GFP antibody, and visualized by ECL detection. mHTT aggregates were quantified from the cell lysates by filter retardation assay (Wanker, E.E., et al., Methods Enzymol (1999); 309: 375-386).

The target of series [7] is T1, mHTT (Mus musculus, UniProt P42859, DEL28-30/G47A/INS49LLPQPQPP/INS60VA/L56P/P40L). As to the kind of experiment: Diffuse mHTT levels in heat shocked STHdh 111/111 striatal cells by immunocytochemistry. To be noted: 48 h, read-out: mHTT after treatment.
T1 sequence (P42859 with tags, fused parts or gaps DEL28-30/P40L/G47A/INS49LLPQPQPP/L56P/INS60VA): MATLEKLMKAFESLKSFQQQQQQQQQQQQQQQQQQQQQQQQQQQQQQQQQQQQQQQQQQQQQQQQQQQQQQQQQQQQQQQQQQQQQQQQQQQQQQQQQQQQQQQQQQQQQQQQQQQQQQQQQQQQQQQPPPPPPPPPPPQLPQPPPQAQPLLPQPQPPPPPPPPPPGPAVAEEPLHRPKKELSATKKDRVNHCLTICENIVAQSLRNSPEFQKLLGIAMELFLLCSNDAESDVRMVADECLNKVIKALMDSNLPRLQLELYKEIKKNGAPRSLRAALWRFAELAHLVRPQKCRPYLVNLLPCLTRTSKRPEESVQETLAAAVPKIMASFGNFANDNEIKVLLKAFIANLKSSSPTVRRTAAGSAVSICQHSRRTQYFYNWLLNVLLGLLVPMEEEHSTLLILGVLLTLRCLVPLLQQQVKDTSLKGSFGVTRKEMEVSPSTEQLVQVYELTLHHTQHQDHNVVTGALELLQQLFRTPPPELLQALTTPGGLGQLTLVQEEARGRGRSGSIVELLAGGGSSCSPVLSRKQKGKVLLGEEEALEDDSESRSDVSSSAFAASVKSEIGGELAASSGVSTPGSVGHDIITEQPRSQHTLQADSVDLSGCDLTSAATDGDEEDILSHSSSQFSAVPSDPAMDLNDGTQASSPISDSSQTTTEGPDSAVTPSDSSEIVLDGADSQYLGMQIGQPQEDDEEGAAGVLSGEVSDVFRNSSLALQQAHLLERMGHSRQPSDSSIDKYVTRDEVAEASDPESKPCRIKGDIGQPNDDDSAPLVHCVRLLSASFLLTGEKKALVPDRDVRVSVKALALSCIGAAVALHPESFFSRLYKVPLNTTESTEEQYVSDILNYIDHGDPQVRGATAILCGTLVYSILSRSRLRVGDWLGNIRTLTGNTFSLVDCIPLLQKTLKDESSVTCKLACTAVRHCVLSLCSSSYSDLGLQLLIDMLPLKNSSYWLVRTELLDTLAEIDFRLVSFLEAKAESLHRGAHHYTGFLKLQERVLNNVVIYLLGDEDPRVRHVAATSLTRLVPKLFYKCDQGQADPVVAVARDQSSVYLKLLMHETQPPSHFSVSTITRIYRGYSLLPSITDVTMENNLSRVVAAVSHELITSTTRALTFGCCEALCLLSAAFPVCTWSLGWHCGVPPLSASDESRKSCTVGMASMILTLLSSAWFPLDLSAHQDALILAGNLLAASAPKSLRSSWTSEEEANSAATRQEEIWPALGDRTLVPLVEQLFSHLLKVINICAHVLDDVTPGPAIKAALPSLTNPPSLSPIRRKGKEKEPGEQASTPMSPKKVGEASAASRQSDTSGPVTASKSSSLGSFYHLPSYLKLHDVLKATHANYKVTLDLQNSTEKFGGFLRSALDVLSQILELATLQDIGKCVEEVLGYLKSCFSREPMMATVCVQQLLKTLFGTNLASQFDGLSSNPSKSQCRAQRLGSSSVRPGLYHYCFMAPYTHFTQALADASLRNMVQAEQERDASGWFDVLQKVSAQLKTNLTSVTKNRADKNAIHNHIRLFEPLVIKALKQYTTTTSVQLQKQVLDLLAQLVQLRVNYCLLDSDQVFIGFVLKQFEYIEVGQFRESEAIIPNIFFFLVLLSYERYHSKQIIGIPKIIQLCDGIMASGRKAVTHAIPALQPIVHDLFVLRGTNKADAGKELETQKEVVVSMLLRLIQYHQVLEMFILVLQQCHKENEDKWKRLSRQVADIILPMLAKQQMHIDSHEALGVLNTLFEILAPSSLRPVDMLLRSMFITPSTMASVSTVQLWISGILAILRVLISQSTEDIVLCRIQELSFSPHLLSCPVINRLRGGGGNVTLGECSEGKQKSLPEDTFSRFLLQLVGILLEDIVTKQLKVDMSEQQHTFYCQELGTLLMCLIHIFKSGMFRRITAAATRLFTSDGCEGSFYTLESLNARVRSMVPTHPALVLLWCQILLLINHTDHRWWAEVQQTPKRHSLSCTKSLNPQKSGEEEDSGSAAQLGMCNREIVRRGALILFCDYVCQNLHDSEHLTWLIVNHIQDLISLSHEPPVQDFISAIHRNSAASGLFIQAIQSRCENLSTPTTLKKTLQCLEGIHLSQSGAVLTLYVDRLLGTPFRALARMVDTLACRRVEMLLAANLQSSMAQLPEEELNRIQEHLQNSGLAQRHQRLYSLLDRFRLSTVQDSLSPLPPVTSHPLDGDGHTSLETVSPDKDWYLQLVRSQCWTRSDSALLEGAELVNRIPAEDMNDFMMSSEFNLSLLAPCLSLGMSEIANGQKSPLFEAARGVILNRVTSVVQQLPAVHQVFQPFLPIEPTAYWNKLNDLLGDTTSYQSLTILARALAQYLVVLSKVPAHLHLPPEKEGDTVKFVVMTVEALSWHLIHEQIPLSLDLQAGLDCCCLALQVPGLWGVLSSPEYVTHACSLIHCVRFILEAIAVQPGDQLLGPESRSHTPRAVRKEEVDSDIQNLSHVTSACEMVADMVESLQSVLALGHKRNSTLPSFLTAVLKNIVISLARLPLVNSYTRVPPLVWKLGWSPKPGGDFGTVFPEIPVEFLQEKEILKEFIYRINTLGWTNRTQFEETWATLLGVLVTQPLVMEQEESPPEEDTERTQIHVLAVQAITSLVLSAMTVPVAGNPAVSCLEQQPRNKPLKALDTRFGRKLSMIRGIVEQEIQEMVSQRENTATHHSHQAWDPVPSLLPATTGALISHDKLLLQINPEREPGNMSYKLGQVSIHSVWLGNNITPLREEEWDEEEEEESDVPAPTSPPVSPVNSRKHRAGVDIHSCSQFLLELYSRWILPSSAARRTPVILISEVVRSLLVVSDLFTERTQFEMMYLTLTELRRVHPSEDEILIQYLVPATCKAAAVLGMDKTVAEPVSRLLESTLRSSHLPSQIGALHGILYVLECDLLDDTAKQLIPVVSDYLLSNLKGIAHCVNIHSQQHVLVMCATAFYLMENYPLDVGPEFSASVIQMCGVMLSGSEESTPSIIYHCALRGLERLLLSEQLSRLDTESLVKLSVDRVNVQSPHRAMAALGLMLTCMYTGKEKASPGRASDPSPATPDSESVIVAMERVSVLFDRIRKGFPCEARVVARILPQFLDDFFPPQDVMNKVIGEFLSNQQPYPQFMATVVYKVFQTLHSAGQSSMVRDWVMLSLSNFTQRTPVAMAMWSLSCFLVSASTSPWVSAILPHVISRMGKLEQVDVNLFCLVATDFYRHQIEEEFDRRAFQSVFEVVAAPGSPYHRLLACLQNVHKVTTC
Procedure: as §1, §2, §3
Staining - Cells were permeabilized with 0.3% Triton X-100 in 4° C. PBS (pH 7.4 from ThermoFisher) for 10 minutes. Then the cells were washed two times with 4° C. PBS. Subsequently, cells are blocked with 3% NGS (normal goat serum from Thermo Fisher) in 4° C. PBS for 1 hour. Cells were incubated with primary antibodies in blocking buffer (PBS, 3% NGS, 0.02% NaN3) over night at 4° C. Primary antibodies were mouse antipolyglutamine monoclonal antibody 3B5H10 (Sigma-Aldrich) at 1:250 dilution and Guinea Pig anti-MAP2 polyclonal antibody (Synaptic Systems) at 1:500 dilution. 3B5H10 binds to diffuse mHTT. Diffuse mHTT is a monomeric and small oligomeric mHTT.
Cells were washed 2 times with 4° C. PBS, and then incubated with secondary antibodies at 1:2000 dilution in blocking buffer for 1 hour at room temperature. […] Cells were washed 2 times with 4° C. PBS, and then the nuclei were counterstain with DAPI (ThermoFisher) for 10 min at room temperature in the dark. Cells were washed 2 times with 4° C. PBS, and then 4° C. PBS was added to cells and then images were acquired.
Fluorescence Imaging - Imaging sessions were performed on a confocal microscope system (Carl Zeiss Microscopy) equipped with a dual spinning disk unit (Yokogawa). All components of the imaging system were controlled via the ZEN 2 software suite (Carl Zeiss Microscopy). The laser lines used were 405 nm, 488 nm and 639 nm to excite DAPI or the respective fluorophores. […] Nested t test was performed to calculate the significance amongst repeated measurements using GraphPad Prism software.
ST HDH Q7/7 (CH00097, Coriell Institute) striatal derived cell line from a knock in transgenic mouse containing HTT loci with a humanized Exon 1 containing 7 polyglutamine repeats.
EC 50 value was determined with non-linear regression.
In series [8] the target is T1, mHTT. In words: mHTT reduction in STHdh 111/111 cells exposed to autophagy inhibitor NH4Cl or UPS inhibitor MG132. It counts as cell-based. Also noted: host or cells: ST HDH Q111/111 mouse striatal derived cell line. To be noted: striatal cells exposed to MG132. On the procedure:
Invitrogen). […] Staining - Cells were permeabilized with 0.3% Triton X-100 in 4° C. PBS (pH 7.4 from ThermoFisher) for 10 minutes. Then the cells were washed two times with 4° C. PBS. Subsequently, cells are blocked with 3% NGS (normal goat serum from Thermo Fisher) in 4° C. PBS for 1 hour. […] Primary antibodies were mouse antipolyglutamine monoclonal antibody 3B5H10 (Sigma-Aldrich) at 1:250 dilution and Guinea Pig anti-MAP2 polyclonal antibody (Synaptic Systems) at 1:500 dilution. For LC3 staining primary antibodies were mouse anti-LC3 mab (5F10) (nanoTools) at 1:500 dilution and Guinea Pig anti-MAP2 polyclonal antibody (Synaptic Systems) at 1:500 dilution. Cells were washed 2 times with 4° C. PBS, and then incubated with secondary antibodies at 1:2000 dilution in blocking buffer for 1 hour at room temperature. […] Fluorescence Imaging - Imaging sessions were performed on a confocal microscope system (Carl Zeiss Microscopy) equipped with a dual spinning disk unit (Yokogawa). […] The fluorescence images obtained of the immunofluorescence labelled tissue sections were quantified with the help of the “Image Processing and Analysis in Java” or short ImageJ software distributed under the GNU General Public License by the NIH (Rueden, C.T. et al., BMC Bioinformatics. 2017 Nov 29;18(1):529), i.e. the edition used was the Fiji distribution (Schindelin, J. et al., Nature methods. 2012 Jun 28;9(7):676-82). […]

What is called viability is a read-out of living cells in per cent, often relative to untreated cells.

“Also recorded” adds a separate entry of the source.

Take `C[n+]1ccc(-c2ccccc2)cc1` [MPP+, reference compound]: in series [1], the “distance moved compared to naive larvae” value was “moved significantly shorter distances than naive larvae”.

On to `Cc1[nH]c2ccc(C(=O)NC3CCC(N(C)C)CC3)cc2c1C` (stereo not drawn) [Compound 101, N-(4-(dimethylamino)cyclohexyl)-2,3-dimethyl-1H-indole-5-carboxamide], for which, in series [2], the “Fraction Helix fH (%)” value was 19.0%. Further, the viability at 10 µM in series [3] was 110%.

In the case of `Cc1[nH]c2ccc(C(=O)N(C)CCN(C)C3CC3)cc2c1C` [Compound 114], the “Biacore affinity (RU^2)” value in series [4] is listed as 20 RU^2.

As to `Cc1[nH]c2ccc(C(=O)NCCN(C)C)cc2c1C` [Compound 7], in series [5], the Classification entry was “BBB+ (blood brain barrier permeating (BBB+) with a flux rate >50%)” and the recovery was determined as 88.5%. Further, the viability at 10 µM in series [3] amounted to 96%. Also, in series [6], the “reduction of mHTT aggregation (filter retardation)” value is recorded as “A reduction of aggregation of Htt14A2.6 PC12 was not observed; also recorded: did not show a reduction of aggregation”. Besides, in series [7], the remaining activity at 10 µM came out at 45%. The “Biacore affinity (RU^2)” value in series [4] came to 122 RU^2.

Consider `O=C(NCCN1CCC1)c1ccc2[nH]c3c(c2c1)CCCC3` [Compound 20], for which, in series [3], the viability at 10 µM was found to be 118%. In addition, in series [8], the “mHTT reduction with MG132 in comparison to without MG132” value was “less”.
